Data as given in ChEMBL document CHEMBL5653615 (J Biol Chem, 2013).

Tests used:
[1] = molecular target: Tyrosine-protein kinase ABL2 (Homo sapiens) (UniProt P42684); experiment: Inhibition of human ABL2 at 500 nM by HotSpot assay relative to control
[2] = molecular target: RAC-gamma serine/threonine-protein kinase (Homo sapiens) (UniProt Q9Y243); experiment: Inhibition of human AKT3 at 500 nM by HotSpot assay relative to control
[3] = molecular target: T1, Tyrosine-protein kinase Mer (Homo sapiens) (UniProt Q12866); experiment: Inhibition of human c-MER at 500 nM by HotSpot assay relative to control
T1 sequence (whole entry): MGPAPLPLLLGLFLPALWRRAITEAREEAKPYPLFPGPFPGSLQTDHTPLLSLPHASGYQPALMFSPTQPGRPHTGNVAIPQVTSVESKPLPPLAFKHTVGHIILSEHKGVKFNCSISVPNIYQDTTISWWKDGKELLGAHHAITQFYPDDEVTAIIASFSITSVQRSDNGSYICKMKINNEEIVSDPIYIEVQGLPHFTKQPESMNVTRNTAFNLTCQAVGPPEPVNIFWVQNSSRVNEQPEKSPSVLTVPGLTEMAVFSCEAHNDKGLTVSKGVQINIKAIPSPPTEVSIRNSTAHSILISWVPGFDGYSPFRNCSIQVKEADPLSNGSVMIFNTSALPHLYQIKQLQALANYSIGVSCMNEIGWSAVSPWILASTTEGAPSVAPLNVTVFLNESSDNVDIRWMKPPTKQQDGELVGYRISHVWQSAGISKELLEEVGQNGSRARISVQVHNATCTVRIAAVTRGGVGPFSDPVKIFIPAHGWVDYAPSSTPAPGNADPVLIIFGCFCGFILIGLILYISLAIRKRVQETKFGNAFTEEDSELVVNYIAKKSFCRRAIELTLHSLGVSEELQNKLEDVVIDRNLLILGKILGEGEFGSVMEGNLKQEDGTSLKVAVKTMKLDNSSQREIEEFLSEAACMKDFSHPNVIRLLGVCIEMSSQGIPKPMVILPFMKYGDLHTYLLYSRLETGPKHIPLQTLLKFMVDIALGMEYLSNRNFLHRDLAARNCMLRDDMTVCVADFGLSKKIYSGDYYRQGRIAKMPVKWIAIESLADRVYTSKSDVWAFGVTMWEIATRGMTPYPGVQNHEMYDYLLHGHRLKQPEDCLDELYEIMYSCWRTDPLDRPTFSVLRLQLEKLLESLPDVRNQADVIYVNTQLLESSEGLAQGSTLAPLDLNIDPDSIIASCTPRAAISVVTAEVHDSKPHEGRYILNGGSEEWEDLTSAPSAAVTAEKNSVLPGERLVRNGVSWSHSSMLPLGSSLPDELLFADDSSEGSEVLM

[4] = molecular target: T2, Serine/threonine-protein kinase Chk1 (Homo sapiens) (UniProt O14757); experiment: Inhibition of human CHK1 at 500 nM by HotSpot assay relative to control
T2 sequence (whole entry): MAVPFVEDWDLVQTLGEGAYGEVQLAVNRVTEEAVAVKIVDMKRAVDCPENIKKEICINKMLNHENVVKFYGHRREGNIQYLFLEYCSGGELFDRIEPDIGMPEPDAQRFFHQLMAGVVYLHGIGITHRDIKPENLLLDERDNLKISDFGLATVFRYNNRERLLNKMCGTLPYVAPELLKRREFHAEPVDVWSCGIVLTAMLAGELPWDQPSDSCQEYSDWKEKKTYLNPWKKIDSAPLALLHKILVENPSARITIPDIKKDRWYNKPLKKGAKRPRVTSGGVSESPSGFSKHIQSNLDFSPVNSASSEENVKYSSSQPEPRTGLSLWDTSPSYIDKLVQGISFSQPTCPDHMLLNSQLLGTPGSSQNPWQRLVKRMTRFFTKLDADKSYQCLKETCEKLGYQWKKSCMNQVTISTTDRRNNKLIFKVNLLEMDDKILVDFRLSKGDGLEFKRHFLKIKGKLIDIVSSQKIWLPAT

[5] = molecular target: Casein kinase I isoform delta (Homo sapiens) (UniProt P48730); experiment: Inhibition of human CK1d at 500 nM by HotSpot assay relative to control
[6] = molecular target: T3, Beta-adrenergic receptor kinase 1 (Homo sapiens) (UniProt P25098); experiment: Inhibition of human GRK2 at 500 nM by HotSpot assay relative to control
T3 sequence (whole entry): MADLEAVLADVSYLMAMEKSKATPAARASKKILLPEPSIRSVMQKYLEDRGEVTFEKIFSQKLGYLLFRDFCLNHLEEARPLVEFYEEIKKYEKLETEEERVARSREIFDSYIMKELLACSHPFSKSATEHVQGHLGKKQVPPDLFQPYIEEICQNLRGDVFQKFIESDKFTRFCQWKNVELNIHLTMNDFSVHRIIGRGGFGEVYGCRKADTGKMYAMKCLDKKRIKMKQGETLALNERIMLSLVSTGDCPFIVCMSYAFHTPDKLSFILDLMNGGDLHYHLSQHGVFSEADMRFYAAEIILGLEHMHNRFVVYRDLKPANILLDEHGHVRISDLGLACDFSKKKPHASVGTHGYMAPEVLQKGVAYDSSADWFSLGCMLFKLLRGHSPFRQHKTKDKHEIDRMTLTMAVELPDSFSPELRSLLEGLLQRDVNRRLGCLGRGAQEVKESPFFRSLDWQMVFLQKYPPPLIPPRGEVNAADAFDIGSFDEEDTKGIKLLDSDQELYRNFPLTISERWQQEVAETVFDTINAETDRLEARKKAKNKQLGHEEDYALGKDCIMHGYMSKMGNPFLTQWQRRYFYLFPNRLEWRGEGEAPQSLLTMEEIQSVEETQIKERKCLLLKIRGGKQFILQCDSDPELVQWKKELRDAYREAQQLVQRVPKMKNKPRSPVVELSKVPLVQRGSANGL

[7] = molecular target: Tyrosine-protein kinase JAK2 (Homo sapiens) (UniProt O60674); experiment: Inhibition of human JAK2 at 500 nM by HotSpot assay relative to control
[8] = molecular target: Mitogen-activated protein kinase 8 (Homo sapiens) (UniProt P45983); experiment: Inhibition of human JNK1 at 500 nM by HotSpot assay relative to control
[9] = molecular target: Dual specificity mitogen-activated protein kinase kinase 2 (Homo sapiens) (UniProt P36507); experiment: Inhibition of human MEK2 at 500 nM by HotSpot assay relative to control
[10] = molecular target: Phosphorylase b kinase gamma catalytic chain, skeletal muscle/heart isoform (Homo sapiens) (UniProt Q16816); experiment: Inhibition of human PHKg1 at 500 nM by HotSpot assay relative to control
[11] = molecular target: STE20-like serine/threonine-protein kinase (Homo sapiens) (UniProt Q9H2G2); experiment: Inhibition of human STK2 at 500 nM by HotSpot assay relative to control
[12] = molecular target: NT-3 growth factor receptor (Homo sapiens) (UniProt Q16288); experiment: Inhibition of human TRKC at 500 nM by HotSpot assay relative to control
Sequence of NT-3 growth factor receptor (Homo sapiens) (Q16288 32-839 limits assumed): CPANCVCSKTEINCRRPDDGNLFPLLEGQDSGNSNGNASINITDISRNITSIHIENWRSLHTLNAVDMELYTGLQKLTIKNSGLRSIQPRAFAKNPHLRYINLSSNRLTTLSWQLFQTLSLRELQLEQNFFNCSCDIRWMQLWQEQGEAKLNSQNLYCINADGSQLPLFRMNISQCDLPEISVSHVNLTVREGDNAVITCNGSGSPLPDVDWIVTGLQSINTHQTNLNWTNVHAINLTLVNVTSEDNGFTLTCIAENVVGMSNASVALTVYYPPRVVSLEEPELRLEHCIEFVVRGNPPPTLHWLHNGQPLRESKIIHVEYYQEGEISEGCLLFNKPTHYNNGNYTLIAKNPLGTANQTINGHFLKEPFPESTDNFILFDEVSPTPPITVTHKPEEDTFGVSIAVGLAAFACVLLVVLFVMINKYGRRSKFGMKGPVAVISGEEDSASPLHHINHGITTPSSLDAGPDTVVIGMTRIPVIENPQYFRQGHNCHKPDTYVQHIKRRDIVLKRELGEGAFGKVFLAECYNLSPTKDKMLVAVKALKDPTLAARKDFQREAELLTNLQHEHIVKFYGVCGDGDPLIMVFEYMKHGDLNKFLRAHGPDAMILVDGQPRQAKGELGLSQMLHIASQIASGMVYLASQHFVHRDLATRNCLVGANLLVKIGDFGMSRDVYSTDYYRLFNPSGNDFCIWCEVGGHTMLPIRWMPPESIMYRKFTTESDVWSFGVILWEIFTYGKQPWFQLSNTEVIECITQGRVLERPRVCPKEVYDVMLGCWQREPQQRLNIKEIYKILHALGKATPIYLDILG

Sequence of Dual specificity mitogen-activated protein kinase kinase 2 (Homo sapiens) (P36507 whole entry, canonical isoform): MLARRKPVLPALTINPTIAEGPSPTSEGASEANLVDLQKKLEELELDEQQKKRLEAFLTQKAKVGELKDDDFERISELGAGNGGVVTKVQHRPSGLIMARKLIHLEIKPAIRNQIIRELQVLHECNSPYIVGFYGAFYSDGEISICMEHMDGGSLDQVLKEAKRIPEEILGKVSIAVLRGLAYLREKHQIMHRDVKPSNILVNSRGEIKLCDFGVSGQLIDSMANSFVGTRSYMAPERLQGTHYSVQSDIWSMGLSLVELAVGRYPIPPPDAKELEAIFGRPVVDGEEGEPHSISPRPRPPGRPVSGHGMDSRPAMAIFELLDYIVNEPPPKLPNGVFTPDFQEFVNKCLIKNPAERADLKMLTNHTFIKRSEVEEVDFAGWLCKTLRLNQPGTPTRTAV
Sequence of Mitogen-activated protein kinase 8 (Homo sapiens) (P45983 whole entry): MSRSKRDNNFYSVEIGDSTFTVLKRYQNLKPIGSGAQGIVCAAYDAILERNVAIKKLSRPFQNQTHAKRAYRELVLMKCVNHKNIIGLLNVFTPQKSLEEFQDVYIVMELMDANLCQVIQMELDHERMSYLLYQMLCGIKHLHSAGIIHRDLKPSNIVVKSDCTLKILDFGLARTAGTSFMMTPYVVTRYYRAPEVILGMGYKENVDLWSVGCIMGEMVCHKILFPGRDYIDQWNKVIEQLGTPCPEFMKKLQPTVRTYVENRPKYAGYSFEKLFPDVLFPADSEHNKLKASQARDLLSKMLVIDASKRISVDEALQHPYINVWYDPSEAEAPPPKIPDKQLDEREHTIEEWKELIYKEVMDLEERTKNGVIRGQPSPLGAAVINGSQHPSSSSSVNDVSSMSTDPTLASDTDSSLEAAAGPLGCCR
Sequence of STE20-like serine/threonine-protein kinase (Homo sapiens) (Q9H2G2 whole entry, looked up): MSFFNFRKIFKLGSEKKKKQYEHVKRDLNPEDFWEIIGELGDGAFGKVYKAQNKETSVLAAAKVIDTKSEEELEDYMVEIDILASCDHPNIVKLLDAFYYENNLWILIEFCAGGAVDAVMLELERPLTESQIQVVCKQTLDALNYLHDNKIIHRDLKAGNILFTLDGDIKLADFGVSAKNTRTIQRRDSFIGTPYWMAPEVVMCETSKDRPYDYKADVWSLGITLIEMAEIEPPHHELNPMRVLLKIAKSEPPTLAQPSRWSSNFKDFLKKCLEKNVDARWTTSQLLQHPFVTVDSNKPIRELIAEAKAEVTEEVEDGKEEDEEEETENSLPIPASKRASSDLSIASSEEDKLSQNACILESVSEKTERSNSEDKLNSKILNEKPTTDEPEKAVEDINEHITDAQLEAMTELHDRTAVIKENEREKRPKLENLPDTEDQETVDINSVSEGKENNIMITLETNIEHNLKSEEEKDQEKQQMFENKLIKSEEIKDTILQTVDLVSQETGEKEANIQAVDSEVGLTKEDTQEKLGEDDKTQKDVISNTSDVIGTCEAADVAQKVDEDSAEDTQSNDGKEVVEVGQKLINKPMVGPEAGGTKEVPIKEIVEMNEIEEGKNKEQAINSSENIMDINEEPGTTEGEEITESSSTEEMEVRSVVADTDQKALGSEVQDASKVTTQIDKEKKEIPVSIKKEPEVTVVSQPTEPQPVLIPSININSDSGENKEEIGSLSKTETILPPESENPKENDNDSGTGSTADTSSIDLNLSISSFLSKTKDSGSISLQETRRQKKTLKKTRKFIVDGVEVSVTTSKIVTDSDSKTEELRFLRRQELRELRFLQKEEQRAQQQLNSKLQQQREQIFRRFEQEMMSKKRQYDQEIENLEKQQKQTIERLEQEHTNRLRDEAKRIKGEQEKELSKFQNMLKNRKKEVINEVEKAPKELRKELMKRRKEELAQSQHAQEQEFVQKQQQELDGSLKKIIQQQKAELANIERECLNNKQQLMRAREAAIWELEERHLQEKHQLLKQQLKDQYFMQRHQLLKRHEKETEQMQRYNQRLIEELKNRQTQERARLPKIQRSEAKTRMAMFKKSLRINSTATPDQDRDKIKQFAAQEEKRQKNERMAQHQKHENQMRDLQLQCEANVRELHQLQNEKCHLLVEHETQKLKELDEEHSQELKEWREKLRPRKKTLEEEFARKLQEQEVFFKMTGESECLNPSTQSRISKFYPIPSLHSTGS
Sequence of RAC-gamma serine/threonine-protein kinase (Homo sapiens) (Q9Y243 whole entry): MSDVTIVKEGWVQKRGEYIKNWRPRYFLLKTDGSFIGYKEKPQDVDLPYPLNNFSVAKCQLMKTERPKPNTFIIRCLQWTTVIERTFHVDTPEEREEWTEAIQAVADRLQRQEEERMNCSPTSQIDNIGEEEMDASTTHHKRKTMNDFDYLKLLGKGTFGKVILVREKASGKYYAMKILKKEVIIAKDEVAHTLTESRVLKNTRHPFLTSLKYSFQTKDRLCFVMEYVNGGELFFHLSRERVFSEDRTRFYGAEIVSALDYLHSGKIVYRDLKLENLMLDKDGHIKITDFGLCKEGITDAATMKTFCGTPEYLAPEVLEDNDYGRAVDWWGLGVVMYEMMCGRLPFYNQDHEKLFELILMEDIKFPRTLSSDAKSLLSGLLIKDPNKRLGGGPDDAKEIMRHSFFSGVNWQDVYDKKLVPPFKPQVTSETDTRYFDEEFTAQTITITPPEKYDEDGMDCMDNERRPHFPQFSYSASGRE
Sequence of Tyrosine-protein kinase ABL2 (Homo sapiens) (P42684 whole entry): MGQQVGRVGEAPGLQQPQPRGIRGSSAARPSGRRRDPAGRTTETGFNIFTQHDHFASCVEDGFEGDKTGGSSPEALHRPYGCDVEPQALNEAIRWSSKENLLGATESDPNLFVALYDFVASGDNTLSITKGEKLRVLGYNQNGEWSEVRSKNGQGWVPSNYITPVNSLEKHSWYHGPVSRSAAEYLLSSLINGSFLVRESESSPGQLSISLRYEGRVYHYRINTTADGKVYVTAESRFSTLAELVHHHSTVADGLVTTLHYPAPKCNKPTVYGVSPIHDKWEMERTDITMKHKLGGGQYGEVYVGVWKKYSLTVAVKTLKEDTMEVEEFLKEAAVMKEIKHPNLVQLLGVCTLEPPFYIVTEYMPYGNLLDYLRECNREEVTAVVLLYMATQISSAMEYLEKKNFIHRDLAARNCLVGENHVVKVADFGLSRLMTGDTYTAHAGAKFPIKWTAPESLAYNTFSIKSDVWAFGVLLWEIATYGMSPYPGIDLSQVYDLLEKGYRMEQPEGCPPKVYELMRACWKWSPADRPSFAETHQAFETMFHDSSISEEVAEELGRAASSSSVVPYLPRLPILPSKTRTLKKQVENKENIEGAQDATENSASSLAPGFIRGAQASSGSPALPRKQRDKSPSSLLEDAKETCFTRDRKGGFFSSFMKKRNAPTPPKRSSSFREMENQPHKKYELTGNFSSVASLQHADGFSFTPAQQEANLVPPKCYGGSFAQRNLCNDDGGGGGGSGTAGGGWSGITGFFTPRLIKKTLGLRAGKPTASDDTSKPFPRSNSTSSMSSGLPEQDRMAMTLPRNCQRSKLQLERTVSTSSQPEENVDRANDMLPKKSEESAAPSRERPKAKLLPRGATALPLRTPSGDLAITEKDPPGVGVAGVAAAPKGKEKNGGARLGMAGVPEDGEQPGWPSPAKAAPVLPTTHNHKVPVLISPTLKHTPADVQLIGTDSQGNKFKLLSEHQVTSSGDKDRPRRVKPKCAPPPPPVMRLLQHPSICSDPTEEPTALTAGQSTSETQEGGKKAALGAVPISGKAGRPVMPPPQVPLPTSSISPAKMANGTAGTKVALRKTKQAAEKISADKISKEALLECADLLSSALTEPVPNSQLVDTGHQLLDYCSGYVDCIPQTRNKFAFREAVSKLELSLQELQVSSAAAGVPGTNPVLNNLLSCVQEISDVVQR
Sequence of Phosphorylase b kinase gamma catalytic chain, skeletal muscle/heart isoform (Homo sapiens) (Q16816 whole entry, looked up, canonical isoform): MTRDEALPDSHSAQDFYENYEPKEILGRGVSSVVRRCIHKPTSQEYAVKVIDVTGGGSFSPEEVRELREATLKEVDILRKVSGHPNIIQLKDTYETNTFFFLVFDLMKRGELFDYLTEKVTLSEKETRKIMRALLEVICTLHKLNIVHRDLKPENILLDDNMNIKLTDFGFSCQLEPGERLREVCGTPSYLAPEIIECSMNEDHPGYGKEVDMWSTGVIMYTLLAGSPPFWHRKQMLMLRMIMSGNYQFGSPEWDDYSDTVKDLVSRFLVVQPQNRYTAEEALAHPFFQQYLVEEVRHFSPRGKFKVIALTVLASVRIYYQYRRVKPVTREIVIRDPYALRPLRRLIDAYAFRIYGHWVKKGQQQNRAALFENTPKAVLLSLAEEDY

Compound	inhibition [1] [%]	inhibition [2] [%]	inhibition [3] [%]	inhibition [4] [%]	inhibition [5] [%]	inhibition [6] [%]	inhibition [7] [%]	inhibition [8] [%]	inhibition [9] [%]	inhibition [10] [%]	inhibition [11] [%]	inhibition [12] [%]
Oc1n[nH]c2nnc(-c3c(-c4ccccc4)nn4ccccc34)cc12	3.05	2.1	2	-1.38	4.93	5.01	2.36	16.7	1.44	-1.18	0.54	2.25
Nc1n[nH]c2nnc(-c3c(-c4ccccc4)nn4ccccc34)cc12	42.5	2.52	23.6	-3.37	36.8	4.99	2.93	1.96	0.62	-0.96	6.01	23.4
